Our source for the IC50 values is patent US20090264433A1, “Compounds, Compositions and Methods Comprising Triazine Derivatives” (Institute for OneWorld Health, priority 2008, published 2009).

Counter-ions that a name gives are not always drawn.

T1 sequence (P13569 whole entry): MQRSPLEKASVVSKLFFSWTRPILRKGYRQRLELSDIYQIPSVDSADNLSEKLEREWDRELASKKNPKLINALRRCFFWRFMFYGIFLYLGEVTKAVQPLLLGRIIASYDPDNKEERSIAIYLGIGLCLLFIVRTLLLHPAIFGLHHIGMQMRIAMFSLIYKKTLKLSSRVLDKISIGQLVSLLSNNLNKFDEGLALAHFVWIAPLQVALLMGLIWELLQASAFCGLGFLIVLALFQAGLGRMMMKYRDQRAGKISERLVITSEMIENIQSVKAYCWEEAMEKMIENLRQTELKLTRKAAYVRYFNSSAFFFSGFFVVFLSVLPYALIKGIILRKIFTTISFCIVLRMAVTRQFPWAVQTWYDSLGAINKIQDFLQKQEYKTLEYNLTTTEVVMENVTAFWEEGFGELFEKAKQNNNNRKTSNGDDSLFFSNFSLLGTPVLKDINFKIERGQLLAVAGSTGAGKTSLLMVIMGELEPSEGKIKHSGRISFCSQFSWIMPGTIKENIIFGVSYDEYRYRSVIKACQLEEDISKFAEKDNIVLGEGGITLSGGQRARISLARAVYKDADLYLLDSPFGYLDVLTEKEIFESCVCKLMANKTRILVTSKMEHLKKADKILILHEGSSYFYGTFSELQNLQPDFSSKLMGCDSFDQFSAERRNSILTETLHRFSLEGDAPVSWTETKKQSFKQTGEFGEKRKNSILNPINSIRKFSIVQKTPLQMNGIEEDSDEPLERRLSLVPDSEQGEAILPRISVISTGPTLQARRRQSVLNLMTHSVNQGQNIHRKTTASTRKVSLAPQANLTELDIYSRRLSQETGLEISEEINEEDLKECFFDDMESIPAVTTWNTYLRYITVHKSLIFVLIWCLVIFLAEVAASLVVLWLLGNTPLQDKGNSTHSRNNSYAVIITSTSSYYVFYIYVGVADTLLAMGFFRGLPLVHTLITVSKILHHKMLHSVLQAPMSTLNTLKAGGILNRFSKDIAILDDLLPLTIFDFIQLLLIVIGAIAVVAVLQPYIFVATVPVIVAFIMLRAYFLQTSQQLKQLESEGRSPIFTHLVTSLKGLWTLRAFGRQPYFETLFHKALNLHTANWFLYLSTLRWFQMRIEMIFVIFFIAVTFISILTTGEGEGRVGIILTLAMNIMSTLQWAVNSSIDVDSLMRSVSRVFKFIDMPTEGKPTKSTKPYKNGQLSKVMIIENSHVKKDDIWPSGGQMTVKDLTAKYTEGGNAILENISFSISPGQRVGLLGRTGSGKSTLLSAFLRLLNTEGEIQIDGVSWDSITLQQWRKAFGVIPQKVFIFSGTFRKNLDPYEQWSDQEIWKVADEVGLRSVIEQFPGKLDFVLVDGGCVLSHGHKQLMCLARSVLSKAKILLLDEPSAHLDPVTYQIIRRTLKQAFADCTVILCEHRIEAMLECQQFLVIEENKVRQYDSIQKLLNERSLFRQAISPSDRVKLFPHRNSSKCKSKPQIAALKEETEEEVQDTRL

The test concerns the target T1, CFTR channel in human colonic T84 cells (Homo sapiens, UniProt P13569).
T1 construct: results in the phosphorylation and opening of CFTR anion channels; host or cells: human colonic T84 cells
Briefly: T84 assay (FLIPR membrane potential dye, forskolin/IBMX-stimulated CFTR). In kind it is cell-based. Particulars: average of at least 2 runs unless annotated n = 1. On the procedure:
(§1) For example, Human colonic T84 cells can be acquired from the European Collection of Cell Cultures (ECACC) and grown in standard culture conditions as described by the supplier. On the day before assay 25,000 T84 cells per well are plated into standard black walled, clear bottom 384-well assay plates in standard growth medium consisting of DMEM:F12 with 10% FBS and incubated overnight. On the day of the assay the plates are washed using a standard assay buffer (HBSS with 10 mM Hepes) and incubated for 15 minutes in serum free cell culture medium before the addition of a commercially available membrane potential sensitive fluorescent dye (FLIPR Red membrane potential dye, Molecular Devices Corporation). T84 cells are incubated with the FLIPR Red membrane potential dye for 45 minutes in the presence and absence of test compound before being transferred to a commercially available fluorescence imaging plate reader (FLIPR384, Molecular Devices Corporation). Fluorescence levels are monitored continuously every second for 150 seconds; after an initial 10 second baseline, CFTR channel activity is stimulated through the addition of 10 μM forskolin in the presence of 100 μM of the phosphodiesterase inhibitor iso-butyl-methylxanthine (IBMX). Addition of the forskolin leads to the activation of intracellular adenylyl cylase 1, elevating cAMP levels and results in the phosphorylation and opening of CFTR anion channels. CFTR channel opening causes chloride ion efflux and subsequent depolarization of the cells, which is measured by an increase in fluorescence. CFTR inhibitor compounds prevent cell depolarization and the associated increase in fluorescence.
as §1, with “Human colonic” for “For example, Human colonic”, “T84 cells are acquired from” for “T84 cells can be acquired from”, “(ECACC) and are grown in” for “(ECACC) and grown in”
For orientation: IC50 means the concentration needed to halve the response being measured. A lower IC50 goes with higher potency. `CN(Cc1ccc(COc2ncc(-c3cc(Cl)c(O)c(Cl)c3)nn2)cc1)Cc1cccc(-c2ccncc2)c1` [Compound 177, 2,6-dichloro-4-(3-(4-((methyl(3-(pyridin-4-yl)benzyl)amino)methyl)benzyl-oxy)-1,2,4-triazin-6-yl)phenol] had an IC50 of 2.22 µM. The result for `Oc1c(Cl)cc(-c2cnc(OCc3ccc(CNCc4ccncc4)cc3)nn2)cc1Cl` [Compound 156, 2,6-dichloro-4-(3-(4-((pyridin-4-ylmethylamino)methyl)benzyloxy)-1,2,4-triazin-6-yl)phenol] reads 15.4 µM. The result for `CN(C)CCOc1ccc(CN(C)Cc2ccc(COc3ncc(-c4cc(Cl)c(O)c(Cl)c4)nn3)cc2)cc1` [Compound 198, 2,6-dichloro-4-(3-(4-(((4-(2-(dimethylamino)ethoxy)benzyl)(methyl)amino)methyl)benzyloxy)-1,2,4-triazin-6-yl)phenol] reads 9.94 µM. Consider `Cc1ccc(OCc2ncc(-c3cc(Br)c(O)c(Br)c3)nn2)c2c1CCC2` [Compound 45, 2,6-dibromo-4-(3-((7-methyl-2,3-dihydro-1H-inden-4-yloxy)methyl)-1,2,4-triazin-6-yl)phenol], for which the IC50 is 14.1 µM.

In turn, `Cc1csc(CC(=O)N2CCN(Cc3ccc(COc4ncc(-c5cc(Cl)c(O)c(Cl)c5)nn4)cc3)CC2)n1` [Compound 225, 1-(4-(4-((6-(3,5-dichloro-4-hydroxyphenyl)-1,2,4-triazin-3-yloxy)methyl)benzyl)piperazin-1-yl)-2-(4-methylthiazol-2-yl)ethanone] returned an IC50 of 11.1 µM. For `Oc1c(Br)cc(-c2cnc(OCc3cccc(Oc4ccccc4)c3)nn2)cc1Br` [Compound 27, 2,6-dibromo-4-(3-(3-phenoxybenzyloxy)-1,2,4-triazin-6-yl)phenol] the value was 0.56 µM. For `COc1ccc(Cl)cc1COc1ncc(-c2cc(Br)c(O)c(Br)c2)nn1` [Compound 5, 2,6-dibromo-4-(3-(5-chloro-2-methoxybenzyloxy)-1,2,4-triazin-6-yl)phenol] the value was 0.7 µM. Consider `OCCN(Cc1cccnc1)c1ncc(-c2cc(Cl)c(O)c(Cl)c2)nn1` [Compound 160, 2,6-dichloro-4-(3-((2-hydroxyethyl)(pyridin-3-ylmethyl)amino)-1,2,4-triazin-6-yl)phenol], for which the IC50 was found to be 22.4 µM.

For `Oc1c(Cl)cc(-c2cnc(OCCc3cccc4ccccc34)nn2)cc1Cl` [Compound 115, 2,6-dichloro-4-(3-(2-(naphthalen-1-yl)ethoxy)-1,2,4-triazin-6-yl)phenol], the IC50 was 0.35 µM.

Take `O=S1(=O)CCN(Cc2ccc(COc3ncc(-c4cc(Cl)c(O)c(Cl)c4)nn3)cc2)CC1` [Compound 136, formate salt]: the IC50 came to 18.3 µM.

Regarding `CN(Cc1ccc(COc2ncc(-c3cc(Cl)c(O)c(Cl)c3)nn2)cc1)Cc1ccc(-c2ccc(C(F)(F)F)cn2)cc1` [Compound 210, 2,6-dichloro-4-(3-(4-((methyl(4-(5-(trifluoromethyl)pyridin-2-yl)benzyl)amino)methyl)benzyloxy)-1,2,4-triazin-6-yl)phenol], the half-maximal inhibitory concentration (IC50) stood at 6.42 µM. For `Oc1c(Cl)cc(-c2cnc(OCc3ccc(CN4CCN(c5ccc(Cl)cc5Cl)CC4)cc3)nn2)cc1Cl` [Compound 150, 2,6-dichloro-4-(3-(4-((4-(2,4-dichlorophenyl)piperazin-1-yl)methyl)benzyloxy)-1,2,4-triazin-6-yl)phenol], the IC50 came out at 2.01 µM.

Compound `CN(Cc1ccc(COc2ncc(-c3cc(Cl)c(O)c(Cl)c3)nn2)cc1)Cc1cccc(CN2CCCC2)c1` [Compound 212, 2,6-dichloro-4-(3-(4-((methyl(3-(pyrrolidin-1-ylmethyl)benzyl)amino)methyl)benzyloxy)-1,2,4-triazin-6-yl)phenol, formate salt] registered an IC50 of 4.9 µM. In turn, `O=C(c1ccccc1)N1CCN(Cc2ccc(COc3ncc(-c4cc(Cl)c(O)c(Cl)c4)nn3)cc2)CC1` [Compound 218, (4-(4-((6-(3,5-dichloro-4-hydroxyphenyl)-1,2,4-triazin-3-yloxy)methyl)benzyl)piperazin-1-yl)(phenyl)methanone] yielded an IC50 of 3.8 µM.
